Results: US10577373B2, “TYK2 inhibitors and uses thereof” (Nimbus Lakshmi, Inc., priority 2017, dated 2020)

Experiments:
[1] = molecular target: human TYK2 (JH2 domain-pseudokinase) (Homo sapiens (Human), UniProt P29597); test: TYK2 JH2 Domain Binding Assay (KINOMEscan)
Procedure: Binding constants for compounds of the present invention against the JH2 domain were determined by the following protocol for a KINOMEscan® assay (DiscoveRx). A fusion protein of a partial length construct of human TYK2 (JH2 domain-pseudokinase) (amino acids G556 to D888 based on reference sequence NP_003322.3) and the DNA binding domain of NFkB was expressed in transiently transfected HEK293 cells. From these HEK 293 cells, extracts were prepared in M-PER extraction buffer (Pierce) in the presence of Protease Inhibitor Cocktail Complete (Roche) and Phosphatase Inhibitor Cocktail Set II (Merck) per manufacturers' instructions. The TYK2 (JH2 domain-pseudokinase) fusion protein was labeled with a chimeric double-stranded DNA tag containing the NFkB binding site (5′-[…]-3′) fused to an amplicon for qPCR readout, which was added directly to the expression extract (the final concentration of DNA-tag in the binding reaction is 0.1 nM).
The liganded beads were blocked with excess biotin and washed with blocking buffer (SeaBlock (Pierce), 1% BSA, 0.05% Tween 20, 1 mM DTT) to remove unbound ligand and to reduce nonspecific binding.
Extracts were used directly in binding assays without any enzyme purification steps at a ≥10,000-fold overall stock dilution (final DNA-tagged enzyme concentration<0.1 nM). Extracts were loaded with DNA-tag and diluted into the binding reaction in a two step process. First extracts were diluted 1:100 in 1× binding buffer (PBS/0.05% Tween 20/10 mM DTT/0.1% BSA/2 μg/ml sonicated salmon sperm DNA) containing 10 nM DNA-tag. This dilution was allowed to equilibrate at room temperature for 15 minutes and then subsequently diluted 1:100 in 1× binding buffer. […] Kds were determined using an 11-point 3-fold compound dilution series with three DMSO control points. […] The compounds were then diluted directly into the assays such that the final concentration of DMSO was 0.9%. All reactions performed in polypropylene 384-well plates. Each was a final volume of 0.02 mL. Assays were incubated with shaking for 1 hour at room temperature. Then the beads were pelleted and washed with wash buffer (lx PBS, 0.05% Tween 20) to remove displaced kinase and test compound. […] The qPCR protocol consisted of a 10 minute hot start at 95° C., followed by 35 cycles of 95° C. for 15 seconds, 60° C. for 1 minute.
Kds were determined using an 11-point 3-fold compound dilution series with three DMSO control points. […] The compounds were then diluted directly into the assays such that the final concentration of DMSO was 0.9%. The Kds were determined using a compound top concentration of 30,000 nM. Kd measurements were performed in duplicate.
Binding constants (Kds) were calculated with a standard dose-response curve using the Hill equation: […]
The Hill Slope was set to −1.

Tyk2 kinase domain (JH1) = Tyk2 kinase domain (JH1) (Homo sapiens (Human), UniProt P29597); test: Tyk2 Radioactive Kinase Assay; format: biochemical; conditions: ATP 10 μM
Procedure: (§1) The Tyk2 and JAK2 radioactive kinase assay measures the percent inhibition at the Tyk2 kinase domain (JH1) and the percent inhibition at the JAK2 kinase domain (JH1). Results of the assay are expressed as percent inhibition at 10 μM.

JAK2 kinase domain (JH1) = JAK2 kinase domain (JH1) (Homo sapiens (Human), UniProt O60674); test: JAK2 Radioactive Kinase Assay; format: biochemical; conditions: ATP 10 μM
Procedure: as §1

[2] = test system: GM-CSF induced STAT5 phosphorylation mediated by the JAK2/JAK2 homdimeric complex; test: GM-CSF Induced pSTAT5 in Human PBMC; conditions: Homo sapiens, PBMC, 20 min, read-out: PBMC_GMCSF_pSTAT5 IC50, human PBMC; GM-CSF 5 ng/mL for 20 minutes; pSTAT5
Excerpt: Human PBMC are isolated from buffy coat and are stored frozen for assays as needed.

[3] = test system: IL-12 induced STAT4 phophorylation mediated by Tyk2/JAK2 (heterodimeric complex); test: IL-12 Induced pSTAT4 in Human PBMC; format: cell-based; conditions: 1.7 ng/mL IL-12
Excerpt: The IL-12 Induced pSTAT4 assay evaluates the inhibition of IL-12 induced STAT4 phophorylation mediated by Tyk2/JAK2 (heterodimeric complex).

Tyk2 kinase domain (JH1), sequence (P29597 897-1176): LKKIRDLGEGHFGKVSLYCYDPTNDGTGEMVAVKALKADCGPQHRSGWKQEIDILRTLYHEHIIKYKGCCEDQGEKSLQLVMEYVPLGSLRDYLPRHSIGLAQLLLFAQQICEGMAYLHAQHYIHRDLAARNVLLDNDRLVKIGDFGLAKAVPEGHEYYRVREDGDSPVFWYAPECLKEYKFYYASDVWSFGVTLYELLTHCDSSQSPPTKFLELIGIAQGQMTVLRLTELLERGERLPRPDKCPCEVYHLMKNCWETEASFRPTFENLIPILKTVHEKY
human TYK2 (JH2 domain-pseudokinase), sequence (P29597 556-888): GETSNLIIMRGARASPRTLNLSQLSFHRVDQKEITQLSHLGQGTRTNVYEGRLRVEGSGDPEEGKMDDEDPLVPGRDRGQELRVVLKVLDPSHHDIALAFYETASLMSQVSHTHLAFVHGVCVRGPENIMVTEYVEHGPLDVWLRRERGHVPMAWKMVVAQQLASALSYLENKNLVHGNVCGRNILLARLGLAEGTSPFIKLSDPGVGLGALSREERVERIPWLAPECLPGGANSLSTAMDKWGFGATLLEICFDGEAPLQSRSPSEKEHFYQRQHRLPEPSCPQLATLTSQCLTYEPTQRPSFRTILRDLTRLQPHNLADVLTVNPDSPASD
JAK2 kinase domain (JH1), sequence (O60674 849-1124): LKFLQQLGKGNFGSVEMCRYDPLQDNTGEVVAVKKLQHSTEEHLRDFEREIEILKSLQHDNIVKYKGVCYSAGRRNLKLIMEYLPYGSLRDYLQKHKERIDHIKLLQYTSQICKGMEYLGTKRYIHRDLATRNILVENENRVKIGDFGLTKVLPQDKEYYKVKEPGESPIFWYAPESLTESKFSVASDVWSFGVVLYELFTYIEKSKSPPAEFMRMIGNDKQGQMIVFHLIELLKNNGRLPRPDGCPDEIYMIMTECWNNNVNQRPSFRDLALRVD

| Structure (SMILES) | Kd [1] | IC50 [3] | other results |
| --- | --- | --- | --- |
| CNc1cc(Nc2cccc([C@@H]3CCCOC3)n2)nc2c(C(=O)N[C@H]3CC[C@H]3O)cnn12 [I-645] | 1 to 10 nM |  |  |
| CNc1cc(Nc2cccn(C(C)C)c2=O)cc2c(C(=O)N[C@H]3CC[C@@]3(C)O)cnn12 [I-1371] | < 0.2 nM |  |  |
| CNc1cc(C2=CN(C(C)C)C3N=CC(F)=CC23)nc2c(C(=O)N[C@@H]3CC[C@@H]3O)cnn12 (stereo partly drawn) [I-1386] | 1 to 10 nM |  |  |
| CNc1cc(Nc2cccnc2OC2CC2)nc2c(C(=O)NC3CC4(COC4)C3)cnn12 [I-433] |  |  | inhibition at 10 µM (Tyk2 kinase domain (JH1); compound at 10 μM): < 50%; inhibition at 10 µM (JAK2 kinase domain (JH1); compound at 10 μM): 50 to 70% |
| CNc1cc(Nc2cc(F)cn(C3CCOCC3)c2=O)nc2c(C(=O)NCC(C)(C)CO)cnn12 [I-529] |  |  | inhibition at 10 µM (Tyk2 kinase domain (JH1); compound at 10 μM): < 50%; inhibition at 10 µM (JAK2 kinase domain (JH1); compound at 10 μM): < 50% |
| CNc1cc(Nc2cc(Cl)cn(C3CCOCC3)c2=O)nc2c(C(=O)NCC(C)(C)CO)cnn12 [I-694] | < 0.2 nM | < 100 nM | inhibition at 10 µM (Tyk2 kinase domain (JH1); compound at 10 μM): < 50%; inhibition at 10 µM (JAK2 kinase domain (JH1); compound at 10 μM): < 50%; IC50 [2]: > 50000 nM |
| CNc1cc(-c2cn([C@H]3CCN(CCF)C3)c3cnccc23)nc2c(C(=O)N[C@@H]3C[C@@H]3F)cnn12 [I-1362] | 0.2 to 1 nM | < 100 nM |  |
| CNc1cc(Nc2cccn([C@H]3CCCC[C@H]3O)c2=O)nc2c(C(=O)N[C@@H]3C[C@@H]3F)cnn12 [I-988, N-((1R,2S)-2-fluorocyclopropyl)-5-((1-((1S,2R)-2-hydroxycyclohexyl)-2-oxo-1,2-dihydropyridin-3-yl)amino)-7-(methylamino)pyrazolo[1,5-a]pyrimidine-3-carboxamide] | < 0.2 nM | < 100 nM | inhibition at 10 µM (Tyk2 kinase domain (JH1); 10 μM compound): < 50%; inhibition at 10 µM (JAK2 kinase domain (JH1); 10 μM compound): < 50%; IC50 [2]: > 50000 nM |
| [2H]C([2H])([2H])Oc1ncccc1Nc1cc(NC)n2ncc(C(=O)N[C@H]3[C@@H]4COC[C@@H]43)c2n1 [I-447] | < 0.2 nM |  |  |
| CNc1cc(Nc2cccc(N3CCOC4(CCOC4)C3)n2)nc2c(C(=O)NC3CC3)cnn12 (stereo not drawn) [I-744] |  |  | inhibition at 10 µM (Tyk2 kinase domain (JH1); compound at 10 μM): < 50%; inhibition at 10 µM (JAK2 kinase domain (JH1); compound at 10 μM): < 50% |
| CNc1cc(Nc2cccn(-c3cccc(C)n3)c2=O)nc2c(C(=O)NC3CC3)cnn12 [I-237] |  |  | Tyk2 JH1% Inhibition @ 10 μM (Tyk2 kinase domain (JH1); 10 μM compound): A (percent inhibition at 10 μM lower than 50); JAK2 JH1% Inhibition @ 10 μM (JAK2 kinase domain (JH1); 10 μM compound): A (percent inhibition at 10 μM lower than 50) |
| CNc1cc(Nc2cccn(-c3cnc(C(=O)N(C)C)cn3)c2=O)nc2c(C(N)=O)cnn12 [I-53, 5-((1-(5-(dimethylcarbamoyl)pyrazin-2-yl)-2-oxo-1,2-dihydropyridin-3-yl)amino)-7-(methylamino)pyrazolo[1,5-a]pyrimidine-3-carboxamide] | < 0.2 nM |  | inhibition at 10 µM (Tyk2 kinase domain (JH1); 10 μM compound): < 50%; inhibition at 10 µM (JAK2 kinase domain (JH1); 10 μM compound): < 50% |
| CNc1cc(-c2cn(C3CC3)c3ncccc23)nc2c(C(=O)N[C@@H]3CC[C@H]3OC)cnn12 [I-1324] | < 0.2 nM |  |  |
| CNc1cc(C2=CN(C(C)C)C3N=CC(F)=CC23)nc2c(C(=O)N[C@H]3CC[C@H]3O)cnn12 (stereo partly drawn) [I-1387] | 1 to 10 nM | < 100 nM |  |
| CNc1cc(Nc2cccn(-c3ccccn3)c2=O)nc2c(C(=O)N[C@@H]3CC[C@H]3COC)cnn12 [I-1232] | 0.2 to 1 nM |  |  |
| CNc1cc(-c2cn(CCN3CCOCC3)c3ncccc23)nc2c(C(=O)N[C@H]3CC[C@@H]3OC)cnn12 [I-886] |  | < 100 nM | IC50 [2]: > 300 nM |
| CNc1cc(Nc2cccn(-c3ccnc(C)n3)c2=O)nc2c(C(=O)N[C@@H]3C[C@@H]3F)cnn12 (stereo in doubt) [I-124, N-((1R,2S)-2-fluorocyclopropyl)-7-(methylamino)-5-((1-(2-methylpyrimidin-4-yl)-2-oxo-1,2-dihydropyridin-3-yl)amino)pyrazolo[1,5-a]pyrimidine-3-carboxamide] |  | < 100 nM | IC50 [2]: > 12500 nM |
| CNc1cc(-c2cn([C@H]3CCN(CCF)C3)c3cnccc23)nc2c(C(=O)NC3CC3)cnn12 [I-1363] | 0.2 to 1 nM |  |  |
